{
  "source": "patent US10925261B2",
  "about": "“Method for inducing feminization in Tilapia aurea via immersion with ethinyl estradiol” (GALLANT OCEAN INTERNATIONAL, INC., priority 2018, dated 2021)",
  "system": "Tilapia aurea fry",
  "experiment": "Induction of feminization in Tilapia aurea fry via immersion treatment with ethinyl estradiol",
  "format": "in vivo",
  "details": "3 minutes, 25° C., 3 dph fry",
  "method": "Males and females of Tilapia aurea (about 12 months of age) provided by Prof. Chien-Hsien Kuo from the Department of Aquatic Biosciences at National Chiayi University (Taiwan) served as the parent fish in the following example. The male and female fish were separately raised in concrete ponds provided with water maintained at 25° C. and about 6 mg/L of dissolved oxygen under natural light, and were provided with feed ad libitum. Mating was carried out with a male-to-female ratio of 2:5. Fertilized eggs were flushed out from the oral cavity of the female fish to be collected, followed by incubation at 25° C. for 7 to 14 days. 3 dph fish fry were obtained.\nTwo immersion solutions respectively having ethinyl estradiol concentrations shown in Table 1 below were each prepared as follows. An appropriate amount of ethinyl estradiol was dissolved in 10 mL of ethanol, followed by mixing with 5 L of water in a water tank.\n5 trials of feminization induction were conducted using a respective one of the two immersion solutions. Specifically, for each trial of feminization induction, the 3 dph Tilapia aurea fry (the amount thereof is shown in Table 1) were placed in the respective immersion solution at 25° C. for 3 minutes. […] After seven months of breeding, the gender of all the surviving fish was observed, and the feminization rate (i.e. the percentage of females) was calculated.",
  "data": [
    {"compound": "C#C[C@]1(O)CC[C@H]2[C@@H]3CCc4cc(O)ccc4[C@H]3CC[C@@]21C", "note": "[ethinyl estradiol]", "values": [
      {"measurement": "Feminization rate (%) (percentage of females)", "setting": "immersion 142.85 ppm, gender observed after seven months of breeding, trial 5", "value": 87, "unit": "%"},
      {"measurement": "Feminization rate of each trial", "setting": "immersion 142.85 to 200 ppm, all 5 trials", "value": "≥ 87", "unit": "%"}
    ]}
  ]
}
